Laboratory results: patent publication US20260216110A1, “COMPOUND USEFUL AS THYROID HORMONE RECEPTOR ß-SELECTIVE THYROID HORMONE ANALOG” (NATIONAL UNIVERSITY CORPORATION TOKAI NATIONAL HIGHER …, priority 2022, published 2026)
Entries after “also recorded” stand apart in the source; their conditions may differ.

What was measured:
[1] = test system: lipid droplets in hepatocytes; test: Oil Red O staining of liver sections, high-fat diet mice; assay type: in vivo, C57BL/6J mice; settings: HFD mice, 1 μmol/kg-day i.p. for 3 weeks, compared to the vehicle
Experimental: Lipid droplets are organelles for storing neutral lipids, such as triglycerides and cholesterol esters. Excessive accumulation of lipid droplets in hepatocytes is characteristic of non-alcoholic fatty liver disease (NAFLD). […] Specifically, the procedure performed is described below.
(§1) Male 7-week-old C57BL/6J mice were individually housed in cages (Innocages, ORIENTAL GIKEN) and kept warm at 23° C. with a 12-hour light-dark cycle starting at 8:00 AM. After 1 week of acclimation, the animals were given either a normal diet (ND; 10 kcal % fat, D12450B, Research Diets) or a high-fat diet (HFD; 60 kcal % fat, D12492, Research Diets). […] The injection was given 6 hours after lights on. Food consumption and body weight were measured weekly. Food and water were provided to the animals ad libitum. After 3 weeks of daily injections, whole blood was collected under isoflurane anesthesia, and the heart and liver were harvested. The liver was frozen and stored at −80° C.
20 μm sections were prepared from the frozen liver tissues using a cryostat (CM3050 S, Leica). The sections were mounted on silane-coated glass slides, dried at room temperature, and stored at −80° C. until use. Before staining, the sections were fixed with 1% PFA/1×PBS, pH of 7.4 (Gibco), for 5 minutes, then immersed in 1×PBS for 5 minutes, distilled water for 5 minutes, and a 60% 2-propanol solution for 1 minute. The Oil Red O staining solution was prepared by mixing 0.36 g of Oil Red O (Sigma) with 120 mL of 2-propanol and 80 mL of distilled water, letting it stand at room temperature for 1 hour, filtering the solution, and then leaving it overnight at 37° C. The sections were immersed in the Oil Red O staining solution at 37° C. for 15 minutes, and then rinsed in 60% 2-propanol for 1 minute and in distilled water for 1 minute. Thereafter, the sections were counterstained with Meyer's hematoxylin. […] The area of red-stained lipid droplets was quantified using Image J (NIH), and the percentage of the stained area in the total image area was calculated. Three sections per mouse were analyzed.

[2] = Heart weight (cardiac hypertrophy); assay type: in vivo, C57BL/6J mice
Experimental: as §1
Left ventricular hypertrophy is often associated with hyperthyroidism caused by increased heart rate mediated by hTHRα. Therefore, hTHRβ-selective analogs are expected to avoid this adverse effect on the heart. To examine whether cardiac hypertrophy was induced, the weight of the heart collected in Test Example 4 was measured.

Ldlr, Srebp1c = test: Further testing: LDL uptake, Ldlr and Srebp1c expression; assay type: in vivo
full-length human THRα = molecular target: T1, full-length human THRα (Homo sapiens, UniProt P10827); test: Radioligand-displacement assay ([125I]-T3), THRα; settings: ratio of the IC50 values THRα/THRβ
T1 sequence (P10827 1-410 isoform P10827-2): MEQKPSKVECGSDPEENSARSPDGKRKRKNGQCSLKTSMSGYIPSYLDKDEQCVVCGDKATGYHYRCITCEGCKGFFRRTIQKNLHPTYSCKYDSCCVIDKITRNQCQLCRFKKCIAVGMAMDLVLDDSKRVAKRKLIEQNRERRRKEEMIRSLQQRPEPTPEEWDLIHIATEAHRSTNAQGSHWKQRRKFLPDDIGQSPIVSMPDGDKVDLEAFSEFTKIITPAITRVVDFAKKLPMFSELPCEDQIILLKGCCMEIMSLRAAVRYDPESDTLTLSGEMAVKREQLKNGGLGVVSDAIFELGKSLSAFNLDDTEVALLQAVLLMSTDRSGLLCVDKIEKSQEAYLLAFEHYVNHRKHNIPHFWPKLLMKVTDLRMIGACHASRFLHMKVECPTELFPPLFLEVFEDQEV
Experimental: Specifically, the assessment was performed as described below by using full-length human THRα and THRβ synthesized by in vitro transcription-translation.
The reaction mixture was incubated overnight at 4° C. A nitrocellulose membrane (Optitran, 0.45 μm in pore size, Whatman) pre-blocked with E-400 buffer was placed in a dot-blot apparatus (Minifold I, GE Healthcare), and the reaction mixture was filtered through the membrane, followed by washing three times with 200 μL of E-400 buffer. […] Radioactive signals were scanned using a Typhoon FLA9000 (GE Healthcare) and quantified by using Image Quant TL software (GE Healthcare). The IC50 value of each competitor drug was calculated by fitting the dose response data to a one-site competition model using GraphPad Prism version 7.0 (GraphPad Software).

[3] = test system: left ventricular cardiomyocytes; test: Transnuclear width of left ventricular cardiomyocytes; assay type: in vivo, C57BL/6J mice; settings: T3; GC-1 high dose 1 μmol/kg BW/day; ZTA-261 dose not specified
Experimental: (§2) Specifically, the procedure performed is described below.
The cardiac tissues collected in Test Example 4 were fixed, dehydrated, and paraffin-infiltrated using an automatic fixation and encapsulation device (Sakura Finetek Japan). Paraffin blocks were prepared using a Tissue Tech TEC 6 (Sakura Finetek Japan), and 5 μm thick transverse sections were prepared using a microtome (Leica). The sections were deparaffinized, rehydrated, and then immersed in a Meyer's hematoxylin solution (FUJIFILM Wako Pure Chemical Industries, Ltd.) and in an eosin solution. Thereafter, the sections were dehydrated and mounted using Entellan new (Merck). The sections were observed under a microscope (BX43; Olympus) at 400× magnification, and digital images were captured using cellSens (Olympus). One hundred cells were randomly selected from the left ventricle of each mouse, and their transnuclear width was measured using Image J (NIH) according to a previously reported method.

THRα = molecular target: T2, THRα (Homo sapiens, UniProt P10827); settings: relative to T3; cited from earlier work
T2 sequence (P10827 1-410 isoform P10827-2): T1 sequence (P10827 1-410 isoform P10827-2)

[4] = Bone structure parameters (bone metabolism); assay type: in vivo; settings: mice of Test Example 4
Experimental: The effect of the test compounds on bone metabolism was investigated. Specifically, bone structure parameters (bone volume: BV/TV, trabecular number: Tb.N, trabecular separation: Tb.Sp, trabecular thickness: Tb.Th, connectivity density: Conn.D) were measured using thin sections prepared from the bones of mice in Test Example 4.

[5] = Serum ALT level (hepatotoxicity); assay type: in vivo, C57BL/6J mice; settings: compared to the vehicle
Experimental: as §2
The blood samples collected in Test Example 4 were left to stand at room temperature for 1 hour, and then centrifuged at 4° C., 800×g, for 15 minutes, followed by collecting the supernatant. The serum ALT levels were measured using an Alanine Aminotransferase (ALT or SGPT) Activity Colorimetric/Fluorometric Assay Kit (BioVision) according to the manufacturer's protocol.

[6] = test system: ligand-binding domain of THRα or THRβ; test: Luciferase reporter assay for THRβ selectivity in GloResponse 9XGAL4UAS-luc2P HEK293 cells; assay type: cell-based; settings: EC50-based, THRα vs THRβ
Experimental: as §2
The cells used and cell culture were as follows. GloResponse 9XGAL4UAS-luc2P HEK293 cells (Promega) were stably transfected with pFN26A (BIND) (Promega) containing the coding region of the ligand-binding domain of THRα or THRβ. The cells were cultured in DMEM supplemented with 10% FBS, 200 μg/mL Hygromycin, and 750 μg/mL G418 in 90 mm cell culture dishes at 37° C. with 5% CO2. The cells were subcultured every 3 days and used in a luciferase reporter assay.
The cells were suspended in an assay medium (DMEM supplemented with 5% charcoal/dextran-treated FBS, 25 mM HEPES, and a 4 mM L-Alanyl-L-glutamine solution) and seeded at 2×10^4 cells/well in 96-well plates coated with poly-L-lysine. After incubation at 37° C. with 5% CO2 for 24 hours, each test compound was added at various concentrations. The following day, firefly luciferase luminescence was measured using a Dual-Glo Luciferase Assay System (Promega) with a microplate reader (SpectraMax i3, Molecular Devices). The luminescence of Renilla luciferase was used as an internal standard.

Row | SMILES | Oil Red O-positive area [1] | heart weight ([2]; high dose 1 μmol/kg BW/day) | cellular uptake of LDL (Ldlr, Srebp1c) | expression of Ldlr (Ldlr, Srebp1c) | expression of Srebp1c (Ldlr, Srebp1c) | affinity for THRα lower than affinity for THRβ (full-length human THRα) | width of cardiomyocytes (transnuclear width, left ventricle) [3] | affinity for THRα lower than T3 (THRα) [fold] | bone structure parameters (BV/TV, Tb.N, Tb.Sp, Tb.Th, Conn.D) [4] | serum ALT levels ([5]; high dose 1 μmol/kg BW/day) | THRβ selectivity [6] | heart weight ([2]; low dose 0.1 μmol/kg BW/day) | serum ALT levels ([5]; low dose 0.1 μmol/kg BW/day)
1 | Cc1cc(OCC(=O)O)cc(C)c1Cc1ccc(O)c(C(C)C)c1 [GC-1] | significantly reduced | significantly increased | promoted | increased | decreased | about 30 times | increased | 10 | significantly worsened | significant increase |  |  | 
2 | Cc1cc(OCC(=O)O)cc(C)c1Cc1ccc(O)c2ccccc12 [MY-53] |  |  |  |  |  |  |  |  |  |  | found to show THRβ selectivity |  | 
3 | N[C@@H](Cc1cc(I)c(Oc2ccc(O)c(I)c2)c(I)c1)C(=O)O [T3, triiodothyronine] | significantly reduced | significantly increased | promoted | increased | decreased |  | increased |  | significantly worsened |  |  |  | 
4 | O=C(O)COc1cc(C(F)(F)F)c(Cc2ccc(O)c3ccccc23)c(C(F)(F)F)c1 [ZTA-245] |  |  |  |  |  |  |  |  |  |  | found to show THRβ selectivity |  | 
5 | O=C(O)Cc1cc(C(F)(F)F)c(Cc2ccc(O)c3ccccc23)c(C(F)(F)F)c1 [ZTA-261] | significantly reduced; also recorded: the most effective, reducing the Oil Red O-positive area to a level comparable to the ND-administered group | No such effect was observed | promoted | increased | decreased |  | no significant increase |  | no significant changes | did not show a significant increase |  | No such effect was observed | did not show a significant increase
